Conditions: Liquid, Vibrating tube method

CCCC[n+]1cccc(C)c1.F[B-](F)(F)F [1-butyl-3-methylpyridinium tetrafluoroborate]
Conditions | mass density [kg/m3]
283.12 K, 2024 kPa | 1194.21
283.13 K, 5410 kPa | 1195.69
283.14 K, 10608 kPa | 1197.94
283.16 K, 101 kPa | 1192.91
283.16 K, 20395 kPa | 1202.09
283.16 K, 29989 kPa | 1206.06
283.16 K, 40399 kPa | 1210.24
283.16 K, 50021 kPa | 1214
283.16 K, 59880 kPa | 1217.75
283.16 K, 70001 kPa | 1221.48
283.16 K, 80055 kPa | 1225.07
283.16 K, 89979 kPa | 1228.5
283.16 K, 99226 kPa | 1231.6
293.13 K, 2373 kPa | 1187.65
293.15 K, 101 kPa | 1185.85
293.15 K, 5192 kPa | 1188.92
293.15 K, 19915 kPa | 1195.44
293.15 K, 29975 kPa | 1199.74
293.15 K, 40033 kPa | 1203.9
293.15 K, 49990 kPa | 1207.91
293.15 K, 60026 kPa | 1211.82
293.15 K, 69993 kPa | 1215.58
293.15 K, 90002 kPa | 1222.75
293.15 K, 99008 kPa | 1225.82
293.16 K, 79917 kPa | 1219.2
293.17 K, 10105 kPa | 1191.13
298.13 K, 101 kPa | 1182.41
298.15 K, 1023 kPa | 1183.65
298.15 K, 5014 kPa | 1185.49
298.15 K, 10024 kPa | 1187.78
298.15 K, 19956 kPa | 1192.22
298.15 K, 29784 kPa | 1196.48
298.15 K, 39954 kPa | 1200.76
298.15 K, 49921 kPa | 1204.82
298.15 K, 59784 kPa | 1208.71
298.15 K, 69521 kPa | 1212.43
298.15 K, 79326 kPa | 1216.05
298.15 K, 89784 kPa | 1219.77
298.15 K, 99965 kPa | 1223.26
313.13 K, 101 kPa | 1172.19
313.13 K, 10051 kPa | 1177.79
313.15 K, 2471 kPa | 1174.15
313.15 K, 5142 kPa | 1175.44
313.15 K, 39901 kPa | 1191.32
313.15 K, 50020 kPa | 1195.6
313.15 K, 59990 kPa | 1199.68
313.15 K, 70046 kPa | 1203.63
313.15 K, 79830 kPa | 1207.34
313.16 K, 30021 kPa | 1186.99
313.16 K, 89989 kPa | 1211.04
313.17 K, 19949 kPa | 1182.42
313.17 K, 99194 kPa | 1214.26
323.14 K, 101 kPa | 1165.48
333.13 K, 2503 kPa | 1160.47
333.14 K, 101 kPa | 1158.81
333.14 K, 39760 kPa | 1178.53
333.15 K, 20056 kPa | 1169.28
333.15 K, 29979 kPa | 1174.02
333.15 K, 79731 kPa | 1195.25
333.15 K, 89986 kPa | 1199.09
333.15 K, 99773 kPa | 1202.59
333.16 K, 5448 kPa | 1161.99
333.16 K, 50021 kPa | 1183.09
333.16 K, 70003 kPa | 1191.43
333.17 K, 10715 kPa | 1164.66
333.17 K, 60243 kPa | 1187.44
343.14 K, 101 kPa | 1152.1
353.12 K, 6509 kPa | 1148.81
353.13 K, 8955 kPa | 1150.12
353.14 K, 2790 kPa | 1146.79
353.15 K, 101 kPa | 1145.3
353.15 K, 90011 kPa | 1186.9
353.15 K, 99259 kPa | 1190.28
353.16 K, 29979 kPa | 1160.91
353.16 K, 39909 kPa | 1165.7
353.16 K, 50013 kPa | 1170.38
353.16 K, 60153 kPa | 1174.86
353.16 K, 69979 kPa | 1179.02
353.16 K, 80426 kPa | 1183.23
353.17 K, 21342 kPa | 1156.58
363.14 K, 101 kPa | 1138.4
373.12 K, 60192 kPa | 1162.13
373.13 K, 50003 kPa | 1157.47
373.14 K, 39996 kPa | 1152.66
373.14 K, 70039 kPa | 1166.42
373.14 K, 99035 kPa | 1177.8
373.15 K, 5373 kPa | 1134.29
373.15 K, 29979 kPa | 1147.62
373.15 K, 90014 kPa | 1174.46
373.16 K, 2495 kPa | 1132.64
373.16 K, 10198 kPa | 1137.01
373.16 K, 20336 kPa | 1142.55
373.16 K, 80221 kPa | 1170.63
393.15 K, 10222 kPa | 1123.08
393.15 K, 20024 kPa | 1128.69
393.15 K, 30013 kPa | 1134.16
393.15 K, 89993 kPa | 1161.76
393.15 K, 99831 kPa | 1165.43
393.16 K, 40133 kPa | 1139.44
393.16 K, 49970 kPa | 1144.34
393.16 K, 60110 kPa | 1149.13
393.16 K, 70029 kPa | 1153.57
393.16 K, 80159 kPa | 1157.85
393.17 K, 2485 kPa | 1118.49
393.17 K, 5300 kPa | 1120.18

Reference: the NIST ThermoML archive (doi:10.1016/j.jct.2011.03.019)
